Assay results as given in patent US7834061B2, “Process for producing 1,4-dihydroxy-2-naphthoic acid” (Meiji Dairies Corporation, priority 2001, dated 2010).

How the values were obtained:
ICR male mice = assay: Animal model with osteoporosis induced by FK-506; type: in vivo; details: DHNA 75 μg/kg orally every day, FK-506 1 mg/kg i.p. for 10 weeks, vs control group (FK 506 (+)) (FIG. 5)
Method: As has been known, administration of FK-506, which is known as an immunosuppressive agent, to an animal induces osteoporosis-like conditions (J. Hard Tissue Biology, 103-107, 10 (2), 2001). […] FK-506 (1 mg/kg) was intraperitoneally administered to ICR male mice (eight weeks old) for 10 consecutive weeks. During the 10-week FK-506 administration, a feed (CRF-1, product of Oriental Yeast Co., Ltd.) was arbitrarily ingested into the mice, and DHNA (75 μg/kg) which had been suspended in a 1% aqueous DMSO (dimethyl sulfoxide) solution was orally administered to each of the mice every day.

[1] = test system: Human osteoblasts (SaM-1); assay: Calcification of osteoblasts (Ca content of extracellular matrix, OCPC method); type: cell-based; details: DHNA 10^-7 M to 10^-5 M, 2 mM α-glycerophosphoric acid, culturing for 32 days, vs 0.1% DMSO control (FIG. 4)
Method: Human osteoblasts (SaM-1), which had been cultured from long bone periosteum of a person obtained during fracture surgery, were employed. […] SaM-1 has been known to promote calcification in the presence of 2 mM of α-glycerophosphoric acid in a 1α, 25 (OH)2D3 concentration-dependent manner (Koshihara, Y. et al.: Biochem. Biophys. Res. commun., 145: 651-657, 1987).
The above-obtained SaM-1 cells of 18 PDL (population doubling level) were inoculated into a 12-well plate, and cultured until the cells reached a confluent state. Subsequently, α-glycerophosphoric acid, which is a calcification promoting agent, was added to the resultant culture broth such that the α-glycerophosphoric acid content became 2 mM. DHNA (10^−7 M to 10^−5 M) was added to the culture broth, followed by culturing for 32 days. For a control, DMSO (a solvent) was added to the culture broth such that the DMSO content became 0.1%. […]
The Ca content of extracellular matrix was quantified by use of a kit (Calcium C Test Wako) based on the o-cresolphthalein complexone method (OCPC method) (Gitleman, H. J.: Anal. Biochem., 18: 520-531, 1967).
After completion of culturing, the resultant cells were washed with a Hanks' solution. […] Thereafter, the resultant reaction mixture was subjected to measurement by use of an absorbance meter (570 nm) (FIG. 4).

O=C(O)c1cc(O)c2ccccc2c1O [DHNA, 1,4-dihydroxy-2-naphthoic acid]
bone density (ICR male mice): significantly higher than that of the mice in the control group | degree of calcification (amount of Ca) [1]: promotes calcification in a concentration-dependent manner
